Source: ChEMBL document CHEMBL4295262, “Evaluation of the utility of stem-cell derived cardiomyocytes for drug proarrhythmic potential” (2019)

Columns and labels:
Conditions in all cases: human, ipsc-cm
[1] = (§1) Electrical activity assay on cell lines treated with a given drug. DMSO was used as a vehicle and a control, unblinded dofetilide was used as a control.
[2] = as §1; assay type: ADME, cell-based; parameters: FPDc: unit not given here
[3] = as §1; remark: listed apart in the source
[4] = as §1; assay type: ADME, cell-based
[5] = as §1; assay type: ADME, cell-based; remark: listed apart in the source
[6] = as §1; remark: listed apart in the source
[7] = 0.03 µM, concentration (um) 0.03 uM
[8] = 0.1 µM, concentration (um) 0.1 uM
[9] = 10 µM, concentration (um) 10 uM
[10] = 100 µM, concentration (um) 100 uM
[11] = 0.09507 µM, concentration (um) 0.0950736 uM
[12] = 0.3004 µM, concentration (um) 0.300433 uM
[13] = 0.9494 µM, concentration (um) 0.949367 uM
[14] = 0.01 µM, concentration (um) 0.01 uM

Cc1nccn1CC1CCc2c(c3ccccc3n2C)C1=O (centres undefined) [ONDANSETRON]
FPD measurement ([1]; 0.03 µM): 54.59 FPDc
FPDc ([1]; 0.03 µM): 54.59
FPD measurement ([1]; 0.3 µM): 58.58 FPDc
FPDc ([1]; 0.3 µM): 58.58
FPD measurement ([1]; 3 µM): 68.22 FPDc
FPDc ([1]; 3 µM): 68.22
FPD measurement ([1]; 30 µM): More Than Half The Wells Had A Quiescence Event Or Fpdc Readings Of 0
FPDc ([1]; 30 µM): More Than Half The Wells Had A Quiescence Event Or Fpdc Readings Of 0
FPD measurement [2, 7]: 5 Values Out Of 5 Were Excluded Due To Quiescence Or 0 Apdc
FPDc [2, 7]: 29.28
FPDc ([2]; 0.3 µM, concentration (um) 0.3 uM): 58.03
FPDc ([2]; 3 µM, concentration (um) 3 uM): 37.01
FPDc ([2]; 30 µM, concentration (um) 30 uM): 17.75
FPD measurement ([3]; 0.03 µM): 1 Values Out Of 1 Were Excluded Due To Quiescence Or 0 Fpdc
FPDc ([3]; 0.03 µM): 1 Values Out Of 1 Were Excluded Due To Quiescence Or 0 Fpdc
FPD measurement ([3]; 0.3 µM): 1 Values Out Of 1 Were Excluded Due To Quiescence Or 0 Fpdc
FPDc ([3]; 0.3 µM): 1 Values Out Of 1 Were Excluded Due To Quiescence Or 0 Fpdc
FPD measurement ([3]; 3 µM): 1 Values Out Of 1 Were Excluded Due To Quiescence Or 0 Fpdc
FPDc ([3]; 3 µM): 1 Values Out Of 1 Were Excluded Due To Quiescence Or 0 Fpdc
FPD measurement ([3]; 30 µM): 1 Values Out Of 1 Were Excluded Due To Quiescence Or 0 Fpdc
FPDc ([3]; 30 µM): 1 Values Out Of 1 Were Excluded Due To Quiescence Or 0 Fpdc

COc1ccccc1OCC(O)CN1CCN(CC(=O)Nc2c(C)cccc2C)CC1 (centres undefined) [RANOLAZINE]
FPD measurement [4, 8]: 51.73 FPDc
FPDc [4, 8]: 6 Values Out Of 6 Were Excluded Due To Quiescence Or 0 Fpdc
FPD measurement ([4]; 1 µM, concentration (um) 1 uM): 54.52 FPDc
FPDc ([4]; 1 µM, concentration (um) 1 uM): 6 Values Out Of 6 Were Excluded Due To Quiescence Or 0 Fpdc
FPD measurement [4, 9]: 75.35 FPDc
FPDc [4, 9]: 6 Values Out Of 6 Were Excluded Due To Quiescence Or 0 Fpdc
FPDc [4, 10]: 6 Values Out Of 6 Were Excluded Due To Quiescence Or 0 Fpdc
FPD measurement [5, 8]: 5 Values Out Of 5 Were Excluded Due To Quiescence Or 0 Apdc
FPDc [5, 8]: 23.9
FPD measurement ([5]; 1 µM, concentration (um) 1 uM): 5 Values Out Of 5 Were Excluded Due To Quiescence Or 0 Apdc
FPDc ([5]; 1 µM, concentration (um) 1 uM): 22.6
FPD measurement [5, 9]: 5 Values Out Of 5 Were Excluded Due To Quiescence Or 0 Apdc
FPDc [5, 9]: 23.41
FPD measurement [5, 10]: More Than Half The Wells Had A Quiescence Event Or Apdc Readings Of 0
FPDc [5, 10]: More Than Half The Wells Had A Quiescence Event Or Fpdc Readings Of 0
FPDc [2, 8]: 63.44
FPD measurement ([2]; 1 µM, concentration (um) 1 uM): 5 Values Out Of 5 Were Excluded Due To Quiescence Or 0 Apdc
FPDc ([2]; 1 µM, concentration (um) 1 uM): 57.19
FPDc [2, 9]: 48.79
FPDc [2, 10]: 47.75
APDc ([6]; 0.1 µM): 65.99
FPD measurement ([6]; 0.1 µM): 65.99 FPDc
APDc ([6]; 1 µM): 53.66
FPD measurement ([6]; 1 µM): 53.66 FPDc
APDc ([6]; 10 µM): 57.23
FPD measurement ([6]; 10 µM): 57.23 FPDc
APDc ([6]; 100 µM): 60.49
FPD measurement ([6]; 100 µM): 60.49 FPDc

CC(C)NCC(O)c1ccc(NS(C)(=O)=O)cc1 (centres undefined) [SOTALOL]
FPD measurement [4, 8]: 50.96 FPDc
FPDc [4, 8]: 6 Values Out Of 6 Were Excluded Due To Quiescence Or 0 Fpdc
FPD measurement ([4]; 1 µM, concentration (um) 1 uM): 54.95 FPDc
FPDc ([4]; 1 µM, concentration (um) 1 uM): 6 Values Out Of 6 Were Excluded Due To Quiescence Or 0 Fpdc
FPD measurement [4, 9]: 164 FPDc
FPDc [4, 9]: 6 Values Out Of 6 Were Excluded Due To Quiescence Or 0 Fpdc
FPDc [4, 10]: 6 Values Out Of 6 Were Excluded Due To Quiescence Or 0 Fpdc
FPD measurement [5, 8]: 5 Values Out Of 5 Were Excluded Due To Quiescence Or 0 Apdc
FPDc [5, 8]: 22.36
FPD measurement ([5]; 1 µM, concentration (um) 1 uM): 5 Values Out Of 5 Were Excluded Due To Quiescence Or 0 Apdc
FPDc ([5]; 1 µM, concentration (um) 1 uM): 20.88
FPD measurement [5, 9]: 5 Values Out Of 5 Were Excluded Due To Quiescence Or 0 Apdc
FPDc [5, 9]: 24.73
FPD measurement [5, 10]: More Than Half The Wells Had A Quiescence Event Or Apdc Readings Of 0
FPDc [5, 10]: More Than Half The Wells Had A Quiescence Event Or Fpdc Readings Of 0
FPD measurement [2, 8]: 5 Values Out Of 5 Were Excluded Due To Quiescence Or 0 Apdc
FPDc [2, 8]: 44.43
FPD measurement ([2]; 1 µM, concentration (um) 1 uM): 5 Values Out Of 5 Were Excluded Due To Quiescence Or 0 Apdc
FPDc ([2]; 1 µM, concentration (um) 1 uM): 41.07
FPD measurement [2, 9]: 5 Values Out Of 5 Were Excluded Due To Quiescence Or 0 Apdc
FPDc [2, 9]: 57.04
FPD measurement [2, 10]: 5 Values Out Of 5 Were Excluded Due To Quiescence Or 0 Apdc
FPDc [2, 10]: 45.01
APDc ([6]; 0.1 µM): 62.02
FPD measurement ([6]; 0.1 µM): 62.02 FPDc
APDc ([6]; 1 µM): 63.35
FPD measurement ([6]; 1 µM): 63.35 FPDc
APDc ([6]; 10 µM): 71.54
FPD measurement ([6]; 10 µM): 71.54 FPDc
APDc ([6]; 100 µM): 79.39
FPD measurement ([6]; 100 µM): 79.39 FPDc

CC/C(=C(\c1ccccc1)c1ccc(OCCN(C)C)cc1)c1ccccc1 [TAMOXIFEN]
FPD measurement [4, 11]: 46.23 FPDc
FPDc [4, 11]: 6 Values Out Of 6 Were Excluded Due To Quiescence Or 0 Fpdc
FPD measurement [4, 12]: 47.89 FPDc
FPDc [4, 12]: 6 Values Out Of 6 Were Excluded Due To Quiescence Or 0 Fpdc
FPD measurement [4, 13]: 110.7 FPDc
FPDc [4, 13]: 6 Values Out Of 6 Were Excluded Due To Quiescence Or 0 Fpdc
FPDc ([4]; 3 µM, concentration (um) 3 uM): 6 Values Out Of 6 Were Excluded Due To Quiescence Or 0 Fpdc
FPD measurement [5, 11]: 5 Values Out Of 5 Were Excluded Due To Quiescence Or 0 Apdc
FPDc [5, 11]: 19.16
FPD measurement [5, 12]: 5 Values Out Of 5 Were Excluded Due To Quiescence Or 0 Apdc
FPDc [5, 12]: 19.98
FPD measurement [5, 13]: 5 Values Out Of 5 Were Excluded Due To Quiescence Or 0 Apdc
FPDc [5, 13]: 19.22
FPD measurement ([5]; 3 µM, concentration (um) 3 uM): 5 Values Out Of 5 Were Excluded Due To Quiescence Or 0 Apdc
FPDc ([5]; 3 µM, concentration (um) 3 uM): 16.9
FPD measurement [2, 11]: 5 Values Out Of 5 Were Excluded Due To Quiescence Or 0 Apdc
FPDc [2, 11]: 53.17
FPD measurement [2, 12]: 5 Values Out Of 5 Were Excluded Due To Quiescence Or 0 Apdc
FPDc [2, 12]: 49.96
FPD measurement [2, 13]: 5 Values Out Of 5 Were Excluded Due To Quiescence Or 0 Apdc
FPDc [2, 13]: 53.33
FPD measurement ([2]; 3 µM, concentration (um) 3 uM): 5 Values Out Of 5 Were Excluded Due To Quiescence Or 0 Apdc
FPDc ([2]; 3 µM, concentration (um) 3 uM): 51.88

COc1cc2c(Nc3ccc(Br)cc3F)ncnc2cc1OCC1CCN(C)CC1 [VANDETANIB]
FPD measurement [4, 14]: 50.93 FPDc
FPDc [4, 14]: 6 Values Out Of 6 Were Excluded Due To Quiescence Or 0 Fpdc
FPD measurement [4, 8]: 55.37 FPDc
FPDc [4, 8]: 6 Values Out Of 6 Were Excluded Due To Quiescence Or 0 Fpdc
FPD measurement ([4]; 1 µM, concentration (um) 1 uM): 118.9 FPDc
FPDc ([4]; 1 µM, concentration (um) 1 uM): 6 Values Out Of 6 Were Excluded Due To Quiescence Or 0 Fpdc
FPDc [4, 9]: 6 Values Out Of 6 Were Excluded Due To Quiescence Or 0 Fpdc
FPD measurement [5, 14]: 5 Values Out Of 5 Were Excluded Due To Quiescence Or 0 Apdc
FPDc [5, 14]: 21.62
FPD measurement [5, 8]: 5 Values Out Of 5 Were Excluded Due To Quiescence Or 0 Apdc
FPDc [5, 8]: 20.73
FPD measurement ([5]; 1 µM, concentration (um) 1 uM): 5 Values Out Of 5 Were Excluded Due To Quiescence Or 0 Apdc
FPDc ([5]; 1 µM, concentration (um) 1 uM): 22.97
FPD measurement [5, 9]: 5 Values Out Of 5 Were Excluded Due To Quiescence Or 0 Apdc
FPDc [5, 9]: 5 Values Out Of 5 Were Excluded Due To Quiescence Or 0 Fpdc
FPD measurement [2, 14]: 5 Values Out Of 5 Were Excluded Due To Quiescence Or 0 Apdc
FPDc [2, 14]: 55.57
FPD measurement [2, 8]: 5 Values Out Of 5 Were Excluded Due To Quiescence Or 0 Apdc
FPDc [2, 8]: 48.34
FPD measurement ([2]; 1 µM, concentration (um) 1 uM): 5 Values Out Of 5 Were Excluded Due To Quiescence Or 0 Apdc
FPDc ([2]; 1 µM, concentration (um) 1 uM): 57.73
FPD measurement [2, 9]: 5 Values Out Of 5 Were Excluded Due To Quiescence Or 0 Apdc
FPDc [2, 9]: 73.71
APDc ([6]; 0.01 µM): 51.06
FPD measurement ([6]; 0.01 µM): 51.06 FPDc
APDc ([6]; 0.1 µM): 61.45
FPD measurement ([6]; 0.1 µM): 61.45 FPDc
APDc ([6]; 1 µM): 63.98
FPD measurement ([6]; 1 µM): 63.98 FPDc
APDc ([6]; 10 µM): 78.14
FPD measurement ([6]; 10 µM): 78.14 FPDc
